Source: PubChem BioAssay (NCI)
Several values for one entry are separate records, joined by “and”; a condition that tells them apart may be missing. Identical values can stand only once.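 Exposure lasted 48 hours, with cells grown in 96-well plates and compounds tested at five concentrations. GI50 marks 50% less growth. At the TGI there is no net growth.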

Tests used:
Assay in all cases: NCI tumour cell line growth inhibition, 48 h
HOP-92 NSCLC = system: HOP-92 NSCLC
TK-10 renal = system: TK-10 renal
SK-MEL-28 melanoma = system: SK-MEL-28 melanoma
NCI-H460 lung = system: NCI-H460 lung
SF-539 CNS = system: SF-539 CNS
LXFL 529 NSCLC = system: LXFL 529 NSCLC
A549 NSCLC = system: A549 NSCLC
HOP-62 NSCLC = system: HOP-62 NSCLC
DMS 114 small cell lung = system: DMS 114 small cell lung
NCI/ADR-RES ovarian = system: NCI/ADR-RES ovarian

Row | SMILES | TGI (HOP-92 NSCLC) | TGI (TK-10 renal) | TGI (SK-MEL-28 melanoma) | TGI (NCI-H460 lung) | TGI (SF-539 CNS) | TGI (LXFL 529 NSCLC) [µM] | TGI (A549 NSCLC) | TGI (HOP-62 NSCLC) | TGI (DMS 114 small cell lung) [µM] | GI50 (HOP-92 NSCLC) | GI50 (NCI-H460 lung) | GI50 (SF-539 CNS) | GI50 (NCI/ADR-RES ovarian) | TGI (NCI/ADR-RES ovarian) | GI50 (A549 NSCLC) | GI50 (HOP-62 NSCLC) | GI50 (SK-MEL-28 melanoma) | GI50 (TK-10 renal) | GI50 (LXFL 529 NSCLC) [µM]
1 | COC(=O)OCC1OC(N2C(=O)NC(=O)C(I)C2N=[N+]=[N-])CC1OC(=O)OC (stereo not drawn) | > 100 µM | > 100 µM | > 100 µM | > 100 µM | > 100 µM | > 100 | > 100 µM | > 100 µM | – | – | – | – | – | – | – | – | – | – | –
2 | COC(=O)c1cnc2nc(N3CCOCC3)[nH]n2c1=O | > 100 µM | > 100 µM | > 100 µM | > 100 µM | > 100 µM | – | > 100 µM | > 100 µM | > 100 | – | – | – | – | – | – | – | – | – | –
3 | COC1/C=C/O[C@@]2(C)Oc3c(C)c(O)c4c(O)c(cc(O)c4c3C2=O)NC(=O)/C(C)=C\C=C\[C@H](C)C(O)[C@@H](C)[C@@H](O)[C@@H](C)[C@H](OC(C)=O)[C@@H]1C (stereo partly drawn) | 24.3 µM and 23.6 µM | 32.1 µM and 39.1 µM | 52 µM and 57.3 µM | 37 µM and 79.8 µM | 12.5 µM and 69.3 µM | – | 31.3 µM and 143 µM | 32.8 µM and 237 µM | 20.6 | 12 µM | 18.8 µM and 32.7 µM | 3.41 µM | 24 µM | 59.7 µM and 86 µM | 16.8 µM and 58.5 µM | 18.8 µM | – | – | –
4 | CC(=O)O[C@]1(C(C)=O)CC[C@H]2[C@@H]3C[C@H](C)C4=CC(=O)C=C[C@]4(C)[C@@]3(F)[C@@H](O)C[C@@]21C | > 100 µM | > 100 µM | > 100 µM | > 100 µM | > 100 µM | – | > 100 µM | > 100 µM | > 100 | – | – | – | – | – | – | – | – | – | –
5 | O=C(Cn1ccnc1[N+](=O)[O-])N(CCO)CCO | > 1250 µM | > 250 µM | > 1250 µM | > 1250 µM | > 1250 µM | – | > 1250 µM | > 250 µM | > 1250 | > 250 µM | > 250 µM | > 1250 µM | > 1250 µM | > 1250 µM | > 1250 µM | 22.3 µM | > 1250 µM | – | –
6 | O=C(/C=C/c1ccc(OCCCCCCCCCCOc2ccc(/C=C/C(=O)c3ccc(Cl)cc3)cc2)cc1)c1ccc(Cl)cc1 | > 100 µM | > 100 µM | > 100 µM | > 100 µM | > 100 µM | – | > 100 µM | > 100 µM | > 100 | – | – | – | – | – | – | – | – | – | –
7 | Cc1cc(N(CCCl)CCCl)ccc1C=Nc1cccnc1 | 68.2 µM | > 66 µM | > 100 µM | > 47.7 µM | > 100 µM | – | > 100 µM | > 100 µM | – | 13.9 µM | 0.369 µM | 4.81 µM | 12.1 µM | > 95.4 µM | 14.3 µM | 10.5 µM | > 77.8 µM | 10.4 µM | –
8 | COc1cc(OC)cc(N2CCC(c3c(N)nc(N)nc3Cl)CC2)c1 | > 100 µM | > 100 µM | > 100 µM | > 100 µM | – | > 100 | > 100 µM | > 100 µM | – | – | – | – | – | – | – | – | – | – | –
9 | O=S(=O)(Nc1ccc(-c2nc(-c3cccc(OCCN4CCOCC4)c3)c(-c3ccnc(Br)c3)[nH]2)cc1)c1ccccc1 | 8.18 µM | > 100 µM | 9.79 µM | > 100 µM | > 100 µM | – | > 100 µM | 57.3 µM | – | 2.41 µM | 3.45 µM | 3.68 µM | 4.18 µM | > 100 µM | 3.35 µM | 3.5 µM | 2.77 µM | 4.16 µM | –
10 | CN(C(=O)c1ccc(F)cc1C(F)(F)F)C1CCN(c2nnc(-c3ccnn3C)c3ccccc23)CC1 | > 92.9 µM | > 100 µM | > 100 µM | > 100 µM | > 100 µM | – | > 100 µM | > 100 µM | – | 16.5 µM | 53.9 µM | > 100 µM | 30.9 µM | > 100 µM | 41 µM | 65.1 µM | > 65.6 µM | 65.6 µM | –
11 | Cc1ccc(S(=O)(=O)N(C)C)cc1[N+](=O)[O-] | > 100 µM | > 100 µM | > 100 µM | > 100 µM | > 100 µM | – | > 100 µM | > 100 µM | – | > 100 µM | > 100 µM | > 100 µM | > 100 µM | > 100 µM | > 100 µM | > 100 µM | > 100 µM | > 100 µM | –
12 | COc1ccc(C(CC(=O)c2ccccc2)C(C(=O)c2ccccc2)C(c2ccc(OC)cc2)C2C(=O)NC(=O)NC2=O)cc1 (stereo not drawn) | 50.2 µM | > 100 µM | > 100 µM | > 100 µM | 63.2 µM | – | > 100 µM | 66.6 µM | – | 2.3 µM | 7.14 µM | 17.8 µM | 22.2 µM | 63.7 µM | 15.9 µM | 26.3 µM | 23.7 µM | 43.2 µM | –
13 | Brc1c[n+](Cc2ccc3ccccc3c2)cn1Cc1ccc2ccccc2c1 | 2.39 µM | 5.16 µM | 3.09 µM | 3.57 µM | 3.04 µM | – | 29.4 µM | 5.96 µM | – | 0.904 µM | 1.78 µM | 1.56 µM | > 100 µM | > 100 µM | 6.9 µM | 2.16 µM | 1.55 µM | 1.86 µM | –
14 | O=C1OCC(c2ccc(O)c(O)c2)=C1c1cc(O)c(O)c(O)c1 | 18.2 µM | > 100 µM | > 100 µM | > 100 µM | 47.9 µM | – | 76 µM | 33.3 µM | – | 2.76 µM | 35.3 µM | 22.8 µM | 0.0297 µM | 18.8 µM | 21.6 µM | 18.5 µM | 38.5 µM | 73.1 µM | –
15 | c1ccc2c(c1)O[As](O[As]1Oc3ccccc3O1)O2 | 5.31 µM | 13.3 µM | 15.1 µM | 23.6 µM | 6.27 µM | – | 47.8 µM | 14.2 µM | – | 0.86 µM | 4.43 µM | 1.84 µM | 3.58 µM | > 100 µM | 12 µM | 3.62 µM | 3.04 µM | 4.75 µM | –
16 | OCCN1CCN(CCCN2c3ccccc3Sc3ccc(C(F)(F)F)cc32)CC1 | 3.81 µM | 4.28 µM and 21.3 µM and 20.1 µM | 1.66 µM and 7.16 µM and 5.98 µM | 6.69 µM and 28.4 µM and 23.3 µM | 11.3 µM and 26.9 µM and 23.6 µM | – | 9.84 µM and 24 µM and 22.9 µM | 9.82 µM and 27.4 µM and 24.7 µM | – | 0.708 µM | 1.82 µM and 9.47 µM and 4.83 µM | 4.88 µM and 10.8 µM and 9.77 µM | 3.28 µM and 10.8 µM and 9.73 µM | 10.4 µM and 23.4 µM and 23.5 µM | 2.79 µM and 10.8 µM and 9.54 µM | 3.11 µM and 13.1 µM and 11.6 µM | 0.91 µM and 2.48 µM and 2.2 µM | 1.48 µM and 8.22 µM and 6.59 µM | –
17 | OCC(O)CC[CH2][Sn]([c]1ccccc1)([c]1ccccc1)[c]1ccccc1 (stereo not drawn) | 24 µM | 31.2 µM | – | 31.6 µM | 32.5 µM | 24.9 | 22.6 µM | 39.1 µM | – | 10.9 µM | 15.4 µM | 17.2 µM | – | – | 10.7 µM | 18.4 µM | – | 17 µM | 12.3
18 | CO/N=C(\c1ccccc1)c1cnn(-c2ccccc2)c1N | > 25 µM | > 25 µM | > 25 µM | > 25 µM | > 25 µM | – | > 25 µM | > 25 µM | – | > 12.4 µM | > 25 µM | > 25 µM | > 25 µM | > 25 µM | > 25 µM | > 25 µM | > 25 µM | > 25 µM | –
19 | O=C(NO)c1ccc(C(=O)NO)cc1 | > 100 µM | > 100 µM | > 100 µM | > 100 µM | > 100 µM | – | > 100 µM | > 100 µM | – | – | – | – | – | 26.2 µM | – | – | – | – | –
20 | Cn1cc(-c2cc3c(Nc4ccc(CC(=O)Nc5cc(C(C)(C)C)on5)cc4)ncnc3[nH]2)cn1 | 11.8 µM and 4.39 µM | 8.91 µM and 7.4 µM | 3.58 µM and 3 µM | 3.65 µM and 6.22 µM | 1.7 µM and 1.63 µM | – | 8.76 µM and 10.5 µM | 4.97 µM and 4.58 µM | – | 1.42 µM and 0.536 µM | 1.04 µM and 1.26 µM | 0.425 µM and 0.265 µM | 16.1 µM and 13.1 µM | > 100 µM | 2.42 µM and 2.84 µM | 0.876 µM and 0.444 µM | 0.804 µM and 0.508 µM | 2.74 µM and 2.44 µM | –
21 | CC1OCC2OC(C)OC(C3C4=C(CC(C)(C)CC4=O)OC4=C3C(=O)CC(C)(C)C4)C2O1 (stereo not drawn) | > 100 µM | > 100 µM | > 100 µM | > 100 µM | > 100 µM | – | > 100 µM | > 100 µM | – | – | – | – | – | > 100 µM | – | – | – | – | –
22 | CC1(C)CCC(S(=O)(=O)c2ccc3c(c2)/C(=N\O)c2cc(S(=O)(=O)N4CCC(O)(c5cccc(C(F)(F)F)c5)CC4)ccc2-3)CC1 | 3.48 µM | 0.393 µM | 0.446 µM | 0.0613 µM | 0.0448 µM | – | 1.05 µM | 0.0489 µM | – | 0.517 µM | 0.0261 µM | 0.0204 µM | 3.14 µM | – | 0.034 µM | 0.0208 µM | 0.0505 µM | 0.0441 µM | –
23 | O=C(c1ccccc1)c1ccc(-c2ccc(O)cc2)cc1 | 30.3 µM | 50.7 µM | > 61.7 µM | 39.3 µM | 56.9 µM | – | > 65.3 µM | 25.9 µM | – | 5.63 µM | 4.2 µM | 14.6 µM | 5.18 µM | 54.9 µM | 3.9 µM | 7.08 µM | 10.4 µM | 8.43 µM | –
24 | OCC1SC(n2cnc3cncnc32)C(O)C1O (stereo not drawn) | > 100 µM | > 100 µM | > 100 µM | > 100 µM | > 100 µM | – | > 100 µM | > 100 µM | – | 48.1 µM | > 100 µM | > 100 µM | > 100 µM | > 100 µM | > 100 µM | > 100 µM | > 100 µM | > 100 µM | –
